Assay in all cases: growth of human tumour cells (NCI), 48 h
The test system of assay [1] is MALME-3M melanoma.
For assay [2], the system named is 786-0 renal.
Assay [3] concerns DU-145 prostate.
In assay [4] the test system is SF-539 CNS.
The subject of assay [5] is OVCAR-4 ovarian.
The subject of assay [6] is HOP-62 NSCLC.
Assay [7] deals with UO-31 renal.
In assay [8] the test system is HS 578T breast.
Assay [9] concerns HCT-15 colon.
The subject of assay [10] is U251 CNS.

Structures are written as SMILES.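 Five compound concentrations were applied to cells in 96-well plates for 48 hours; endpoints were derived by simple linear interpolation of the resulting dose-response curve. GI50 is the concentration that inhibits growth by half. TGI: concentration producing complete growth inhibition.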

Turning to `COc1ccc2c(c1)[C@]1(C[C@H]1c1ccc3c(/C=C/c4ccc(CN5C[C@@H](C)O[C@@H](C)C5)cc4)n[nH]c3c1)C(=O)N2`, the GI50 in [1] is 2.22 µM; in [2] it was 2.3 µM; in [3], 4.91 µM; in assay [4], 1.63 µM; in assay [5] it was 2.65 µM; in assay [6] it was 8.81 µM. Further, the GI50 in assay [7] was 2.84 µM; in assay [8], 4.84 µM; in [9] it was 3.34 µM; in assay [10] it was 5.14 µM. For the same molecule, the TGI in assay [1] was 8.63 µM; in assay [2], 8.58 µM; in assay [3], 45.6 µM; in assay [4] it was 4.63 µM; in assay [5] it was > 100 µM; in assay [6] it was > 100 µM. The TGI was > 100 µM in assay [7], 49.6 µM in assay [8], > 100 µM in [9] and 45.6 µM in [10].
Consider `NC1=NC(c2ccc(Cl)cc2)N(c2ccc(S(=O)(=O)Nc3ncccn3)cc2)C(N)=N1` (stereo not given), for which the TGI in [1], in assay [2], in assay [3], in [4], in assay [5] and in [6] was > 100 µM in each case. The TGI in assay [7], in assay [8], in assay [9] and in [10] was > 100 µM each time.
On to `CCNC(C)(C)C(SS)c1ccc(Br)cc1` (stereo not given), for which the TGI was > 100 µM in assay [1]; 49.6 µM in assay [2]; > 100 µM in assay [3]; > 100 µM in [4]; > 100 µM in assay [5]; > 100 µM in assay [6]. The TGI in assay [7], in assay [8], in [9] and in assay [10] was > 100 µM throughout.
Regarding `CN(Cc1cnc(N)nc1N)c1ccc(C(=O)O)cc1`, the GI50 in [1], in [2], in assay [3], in assay [4], in assay [5] and in assay [6] was > 100 µM each time. The GI50 in assay [7], in assay [8], in assay [9] and in assay [10] was > 100 µM in each case. For the same molecule, the TGI in assay [1], in assay [2], in [3], in assay [4], in assay [5] and in assay [6] was > 100 µM throughout. Also, the TGI in assay [7], in assay [8], in assay [9] and in assay [10] was > 100 µM in each case.
Turning to `Cn1cc(C2=C(c3c4n(c5ccccc35)CCCC4)C(=O)NC2=O)c2ccccc21`, the GI50 in [1] was > 17.8 µM; in assay [2], > 17.8 µM; in assay [3] it was > 15 µM; in assay [4], 10.5 µM; in [5] it was > 16.5 µM; in assay [6] it was > 17.6 µM. Moreover, the GI50 is 11.3 µM in [7], 5.13 µM in assay [8], 11 µM in assay [9] and 13.2 µM in assay [10]. The TGI in assay [1], in assay [2], in assay [3], in assay [4], in [5] and in assay [6] was > 25 µM each time. The TGI in assay [7], in [8], in assay [9] and in assay [10] was > 25 µM each time.
On to `Cc1cc2cccnc2c2ncccc12`, for which the GI50 was 2.17 µM in assay [1]; 0.77 µM in assay [2]; 1.02 µM in assay [3]; 1.83 µM in assay [4]; 0.418 µM in assay [5]; 1.45 µM in assay [6]. The GI50 in [7] was 0.411 µM; in assay [8], 4.04 µM; in [9], 0.436 µM; in assay [10], 0.703 µM. In addition, the TGI is 7.21 µM in assay [1]; 5.97 µM in [2]; > 100 µM in assay [3]; 10.8 µM in [4]; 14.8 µM in assay [5]; > 100 µM in assay [6]. The TGI in [7] amounted to 4.15 µM; in assay [8], 47.9 µM; in assay [9], 21.3 µM; in assay [10], 12.1 µM.

For the origin of these results see PubChem BioAssay (NCI).
